PubChem BioAssay AID2005 (Sanford-Burnham Center for Chemical Genomics, 2009)
Active and inactive are the calls of the source.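 How the source made its calls: active means plate Z score at or below -3, or inhibition of at least 30% at 20 µM; inactive means the rest.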

What was measured:
[1] = compounds lowering EGFP fluorescence in F442A cells, dose response, counter-screen for p/CIP destabilizer project (AID 2005); settings: F442A EGFP cells, EGFP fluorescence, 16 h, stronger effect = higher value;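 further: cells express EGFP alone from a CMV promoter as a counter screen for p/CIP-EGFP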
[2] = tested on: F442A EGFP cells, EGFP fluorescence, 16 h; assay: as above

| Structure (SMILES) | inhibition ([1]; EGFP decrease, at 10 µM) | IC50 [2] | inhibition ([1]; at 20 µM) |
| --- | --- | --- | --- |
| Cc1oc2c(c1C(=O)NCc1cccnc1)C(=O)c1ccccc1C2=O | 72% | 5.99 µM |  |
| CC1CCN(S(=O)(=O)c2ccc3c(c2)C(=NO)c2cc(S(=O)(=O)N4CCC(C)CC4)ccc2-3)CC1 | 68.9% | 7.46 µM |  |
| Nc1ccc2c(c1)C(=O)C(=O)c1ccccc1-2 | 3.5% | 30.8 µM |  |
| O=C1C(Nc2ccc(O)cc2)=C/C(=N/S(=O)(=O)c2cccs2)c2ccccc21 | 66% | 5.18 µM |  |
| CC(C)(C)c1cc[n+](C2=C([O-])c3ccccc3C(=O)/C2=N\S(=O)(=O)c2cccs2)cc1 | -4.5% | 37.9 µM |  |
| Cc1ccccc1NC1=C/C(=N\S(=O)(=O)c2cccs2)c2ccccc2C1=O | 66.7% | 13 µM |  |
| O=C1C(Nc2ccccc2)=C/C(=N/S(=O)(=O)c2cccs2)c2ccccc21 | 62.1% | 10.4 µM |  |
| O=C1C(Cl)=C(NCCN2CCCCC2)C(=O)c2ccccc21 | 16.1% | 20.4 µM |  |
| CCOC(=O)c1c(C)[nH]c2c1-c1ccccc1C(=O)C2=O | 23.3% | 8.64 µM |  |
| Cc1ccc(NC2=C/C(=N\S(=O)(=O)c3cccs3)c3ccccc3C2=O)c(C)c1 | 60% | 16 µM |  |
| COc1ccc(CS(=O)/C(Cl)=C(/Cl)C(=O)Nc2ccc(OC)nc2)cc1 (centres undefined) | -232% | 48 µM (inactive) |  |
| CCOC(=O)N=Nc1c2ccccc2c2nc3no[nH]c3nc12 | -20.6% | 35.5 µM |  |
| COc1cc(Cl)c(C)cc1NC(=O)CSc1ccc(NC(C)=O)cc1 | 20.2% |  | 10.2% (inactive) |
| COc1ccc(CNC(=O)C(c2ccc(C)o2)N(Cc2cccs2)C(=O)Cc2cccs2)cc1 (centres undefined) | 33.3% |  | 25.5% (inactive) |
| CCOC(=O)C(OC(=O)c1sc(=S)n(C)c1C)C(C)=O (centres undefined) | 27.1% |  | 35.7% |
| CC1CC(C)CN(C(=O)C2CCN(S(=O)(=O)c3cccs3)CC2)C1 (centres undefined) | 1.5% |  | 8.5% (inactive) |
| O=C(Nc1cccnc1)c1ccc(Cl)c(S(=O)(=O)N2CCCCCC2)c1 | 28.5% |  | -6.9% (inactive) |
| O=C(c1ccco1)N1CCN(C(=O)c2ccccc2[N+](=O)[O-])CC1 | 10.5% |  | 11.1% (inactive) |
| C[C@H]1CC[C@@H]2[C@@H](C)[C@H]3[C@H](C[C@H]4[C@@H]5CC=C6C[C@@H](O[C@@H]7O[C@H](CO)[C@H](O)[C@H](O[C@@H]8O[C@H](CO)[C@@H](O)[C@H](O)[C@H]8O)[C@H]7O[C@@H]7O[C@@H](C)[C@H](O)[C@@H](O)[C@H]7O)CC[C@]6(C)[C@H]5CC[C@]34C)N2C1 | 30.3% |  | -3% (inactive) |

| Structure (SMILES) | inhibition ([1]; EGFP decrease, at 10 µM) | IC50 [2] | inhibition ([1]; at 20 µM) |
| --- | --- | --- | --- |
| CC1(C)C(=O)Nc2ccccc2N1C(=O)COc1ncnc2c(Cl)cc(Cl)cc12 | 18.4% |  | 17.9% (inactive) |
| CC(C)c1ccc(NC(=S)NN2C(C)CCCC2C)cc1 (centres undefined) | 8.5% |  | 0.8% (inactive) |
| CSCCC(NC(=O)C1CCC(C)CC1)C(=O)Nc1ccc(NC(C)=O)cc1 (centres undefined) | 24.8% |  | 18.5% (inactive) |
| Cc1nc(-c2ccc(C(=O)Nc3cccc(F)c3)cc2)cs1 | 30.7% |  | 32.8% |
| CCN(Cc1ccccc1)C(=O)C(=O)c1cn(CC(=O)N2CCCC2)c2ccccc12 | 19.4% |  | 28.2% (inactive) |
| CC(Oc1ccc(Cl)cc1)C(=O)NCC1CCCO1 (centres undefined) | 20.8% |  | -7.4% (inactive) |
| CC(=O)N/C(=C/c1ccc2c(c1)OCO2)C(=O)NCCCO | 1.2% |  | 2% (inactive) |
| O=C(CN1CCC(n2nnc3cc(F)ccc32)CC1)NC1CC1 | -7.1% |  | -1.4% (inactive) |
| Cc1sc2nc(COC(=O)c3ccc(N4CCCC(C)C4)c([N+](=O)[O-])c3)[nH]c(=O)c2c1C (centres undefined) | 26.5% |  | 11.2% (inactive) |
| O=C(Nc1nc(-c2ccccc2)cs1)C1CCCCN1S(=O)(=O)c1ccccc1 (centres undefined) | 15% |  | 8.6% (inactive) |
| C[C@H](NC(=O)OCc1ccccc1)c1nnc([C@H](C)NC(=O)OCc2ccccc2)o1 | -3.8% |  | -5.1% (inactive) |
| COc1ccc(CCNC(=O)C2CCN(S(=O)(=O)c3cccs3)CC2)cc1OC | 34.9% |  | 25.1% (inactive) |
| Cc1onc(-c2ccccc2Cl)c1C(=O)NCc1cccnc1 | 22.1% |  | 15.9% (inactive) |
| Cc1nc(NC(=O)CN2CCN(c3ccccc3F)CC2)sc1C(=O)N(C)C | 17% |  | 24.4% (inactive) |
| CCOC(=O)C(C)On1c(-c2ccccc2)nc2ccc([N+](=O)[O-])cc21 (centres undefined) | 5.1% |  | 25% (inactive) |
| CC(C)CN(C(=O)c1cccc(F)c1)c1c(N)n(CC(C)C)c(=O)[nH]c1=O | 32.3% |  | 18.5% (inactive) |
| CCC1=C(OC(=O)N(CC)CC)N2C(=O)OC(=NCC3CC3)[C@]2(Cc2ccccc2)[C@H]2C1=CC[C@H]1C(=O)N(CC(=O)OC)C(=O)[C@H]12 | 0.3% |  | 13.8% (inactive) |
| Cc1cc(NC(=O)CSc2ccc3nnc(-c4cccs4)n3n2)no1 | 10.8% |  | 15.9% (inactive) |
| CCCCC(=O)NNC(=S)NC(=O)CCC | 8.3% |  | 15.7% (inactive) |

| Structure (SMILES) | inhibition ([1]; EGFP decrease, at 10 µM) | IC50 [2] | inhibition ([1]; at 20 µM) |
| --- | --- | --- | --- |
| CCC1=C(OC(=O)N(CC)CC)N2C(=O)OC(=NCC3CC3)[C@]2(C)[C@H]2C1=CC[C@H]1C(=O)N(CC)C(=O)[C@H]12 | -7.5% |  | -27.5% (inactive) |
| CCN1CCN(Cc2ccc(NC(=O)c3cc(NC(=O)c4cncc(-c5ccc(C#N)cc5)c4)cc(OC)c3)cc2C(F)(F)F)CC1 | 3% |  | 11.7% (inactive) |
| COc1ccc(NC(=O)/C(Cl)=C(/Cl)S(=O)Cc2ccc(Cl)cc2)cn1 (centres undefined) | -168% | 49.9 µM (inactive) |  |
| CCOc1ccc(N(CC(=O)Nc2cccc(Br)c2)S(C)(=O)=O)cc1 | 36.5% |  | 12.4% (inactive) |
| c1ccc(-c2cc(-c3nnco3)c3ccccc3n2)nc1 | 13.9% |  | -6.2% (inactive) |
| CN(C(=O)c1ccc2c(c1)CCN2S(C)(=O)=O)c1ccccc1 | -5.5% |  | -19.7% (inactive) |
| CCc1cc2c(NCCC(=O)O)nc(C)nc2s1 | 20.9% |  | 21% (inactive) |
| COc1cc2c(cc1NC(=O)/C=C/c1ccccc1)oc1ccccc12 | 12.4% |  | -0.8% (inactive) |
| COC(=O)CS(=O)(=O)c1cccc2cccnc12 | 38.4% |  | 19.7% (inactive) |
| O=C(O)C1=C[C@H](c2cccs2)C[C@H](OCc2ccc(CO)cc2)O1 | 3.6% |  | -7.3% (inactive) |
| NC(=O)C1CCCCc2c1[nH]c1ccc(Cl)cc21 (centres undefined) | 16.2% |  | 7.6% (inactive) |
| O=C1C(=O)c2ccc(-c3ccccc3)cc2-c2ccccc21 | -14.4% |  | 2.4% (inactive) |
| O=c1nc2n(c3ccc([N+](=O)[O-])cc13)CCCCC2 | 39% |  | 29.5% (inactive) |
| Cc1cc2c(c(Sc3ccccc3)n1)C(=O)OC2 | -4% |  | -3.5% (inactive) |
| COC(=O)CSc1[nH]c(=O)cc(C)c1C#N | 26.6% |  | 49.5% |
| Cc1ccc2c(COC(=O)CNC(=O)c3ccccc3)cc(=O)oc2c1 | 5.9% |  | -2.9% (inactive) |
| COC(=O)c1sc(NC(=O)CSc2nnnn2-c2cccc(OC)c2)nc1C | 34.2% |  | 13.2% (inactive) |
| CCOc1ccc(NC(=O)CSc2nc3ccccc3c(=O)n2CCNC(C)=O)cc1 | 13.6% |  | 15% (inactive) |
| CCC1(C)Cc2c(c(=O)n(-c3ccccc3)c3ncnc(N)c23)CO1 (centres undefined) | 4.6% |  | -38.9% (inactive) |
